Test results taken from publication PMC6991140 (Journal of the American Chemical Society, 2017).

Target: T1, asialoglycoprotein receptor (ASGPR) (Homo sapiens, UniProt P07306)
T1 sequence (P07306 1-291): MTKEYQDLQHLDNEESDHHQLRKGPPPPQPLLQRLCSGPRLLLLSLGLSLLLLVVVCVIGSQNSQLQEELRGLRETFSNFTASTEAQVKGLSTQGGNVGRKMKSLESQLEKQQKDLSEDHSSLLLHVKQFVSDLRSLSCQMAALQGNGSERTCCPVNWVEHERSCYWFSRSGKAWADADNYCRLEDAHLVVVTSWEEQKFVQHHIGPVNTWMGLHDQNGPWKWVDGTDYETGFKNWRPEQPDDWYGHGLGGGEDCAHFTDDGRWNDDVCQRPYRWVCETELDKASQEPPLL
Assay: Surface plasmon resonance binding to immobilized ASGPR
Settings: calculated from 1/Kads

SMILES: CC(=O)N[C@H]1C(O)O[C@H](CO)[C@H](O)[C@@H]1O (mixture of isomers) [GalNAc, N-acetylgalactosamine]
- calculated ligand efficiency (LE): 0.41
